# Measured values reported in BindingDB's records for doi:10.1016/s0960-894x(00)00023-8 (Dupont Pharmaceuticals, 2000).
# Where a name gives a salt, the structure may show the parent alone.
# Assay: Inhibition of platelet aggregation in human platelet rich plasma (hPRP)
row,SMILES,IC50 [µM]
1,"N=C(N)c1ccc(C2=NOC(CC(=O)N3CCCCCC3CC(=O)O)C2)cc1 (configuration not stated) [(1-{2-[3-(4-Carbamimidoyl-phenyl)-4,5-dihydro-isoxazol-5-yl]-acetyl}-azepan-2-yl)-acetic acid; TFA]",3.7
2,"N=C(N)c1ccc(C2=NOC(CC(=O)N3CCCCC3CC(=O)O)C2)cc1 (configuration not stated) [(1-{2-[3-(4-Carbamimidoyl-phenyl)-4,5-dihydro-isoxazol-5-yl]-acetyl}-piperidin-2-yl)-acetic acid; TFA]",0.28
3,"N=C(N)c1ccc(C2=NOC(CC(=O)N3CCCC3CC(=O)O)C2)cc1 (configuration not stated) [(1-{2-[3-(4-Carbamimidoyl-phenyl)-4,5-dihydro-isoxazol-5-yl]-acetyl}-pyrrolidin-2-yl)-acetic acid; TFA]",1.1
4,"N=C(N)c1ccc(C2=NOC(CC(=O)N3CCC(C(=O)O)CC3)C2)cc1 (configuration not stated) [1-{2-[3-(4-Carbamimidoyl-phenyl)-4,5-dihydro-isoxazol-5-yl]-acetyl}-piperidine-4-carboxylic acid; TFA]",2.5
5,"N=C(N)c1ccc(C2=NOC(CC(=O)N3CCC(=O)C(C(=O)O)C3)C2)cc1 (configuration not stated) [1-{2-[3-(4-Carbamimidoyl-phenyl)-4,5-dihydro-isoxazol-5-yl]-acetyl}-4-oxo-piperidine-3-carboxylic acid; TFA]",6.4
6,"N=C(N)c1ccc(C2=NOC(CC(=O)N3CCCC(C(=O)O)C3)C2)cc1 (configuration not stated) [1-{2-[3-(4-Carbamimidoyl-phenyl)-4,5-dihydro-isoxazol-5-yl]-acetyl}-piperidine-3-carboxylic acid; TFA]",5.2

# Assay: as above
# Remark: another data set of the same source
row,SMILES,IC50 [µM]
1,N=C(N)c1ccc(C2=NOC(CC(=O)NCCC(=O)O)C2)cc1 (configuration not stated),0.06
